Results taken from ChEMBL document CHEMBL1201862, “PubChem BioAssay data set” (2004).
Calls of active or inactive are those of the source.

What was measured:
[1] = target: Neuropeptides B/W receptor type 1 (Homo sapiens, UniProt P48145); experiment: human NPBW1 receptor blockade, IC50 – cell-based, fluorescence, dose response, set 5, late-stage follow-up (AID 588566); assay type: functional
[2] = target: Melanin-concentrating hormone receptor 1 (Homo sapiens, UniProt Q99705); experiment: Late-stage fluorescence-based counterscreen for antagonists of the G-protein coupled receptor 7 (GPR7): cell-based dose response assay to identify antagonists of the melanin-concentrating hormone receptor 1 (MCHR1) Set 5.; assay type: functional
[3] = Luminescent dose response cell-based high throughput screening assay for inhibitors of the Janus kinase 2 mutant JAK2V617F. [Related pubchem assays: 1446 (Primary screen.), 1521 (Confirmation assay.), 1486 (Counter screen.)]; assay type: functional
[4] = viability loss of HPDE-C7K cells – cell-based, fluorescence, HTS, primary screen (AID 431); assay type: functional; settings: Homo sapiens
[5] = reduced cellular PGC1a acetyl-lysine signal – cell-based, cherry-picked samples, dose response (AID 720514); assay type: functional;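 note: potency may reflect raised or lowered acetylation signal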
[6] = cAMP pathway inhibition in counterscreen cell line – TR-FRET cAMP detection, counter-screen for MC4R biased antagonist project, dose response (AID 602305); assay type: functional, cell-based;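 note: U2OS cells stimulated with forskolin near its EC80 as the cAMP inducer; potency is for inhibition of forskolin-stimulated cAMP signaling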
[7] = target: T1, Heat shock factor protein 1 (Mus musculus, UniProt P38532); experiment: enhancement of HSF1-driven luciferase signal – cell-based, NIH3T3, luminescence, dose retest, confirmation (AID 435004); assay type: functional;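 note: stress induced by proteasome inhibitor MG132 added 30 min after compound; luciferase reporter driven by HSF1 response element in NIH3T3 cells; actives raise luminescence as potentiators of the MG132 stress response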
T1 sequence (P38532 whole entry): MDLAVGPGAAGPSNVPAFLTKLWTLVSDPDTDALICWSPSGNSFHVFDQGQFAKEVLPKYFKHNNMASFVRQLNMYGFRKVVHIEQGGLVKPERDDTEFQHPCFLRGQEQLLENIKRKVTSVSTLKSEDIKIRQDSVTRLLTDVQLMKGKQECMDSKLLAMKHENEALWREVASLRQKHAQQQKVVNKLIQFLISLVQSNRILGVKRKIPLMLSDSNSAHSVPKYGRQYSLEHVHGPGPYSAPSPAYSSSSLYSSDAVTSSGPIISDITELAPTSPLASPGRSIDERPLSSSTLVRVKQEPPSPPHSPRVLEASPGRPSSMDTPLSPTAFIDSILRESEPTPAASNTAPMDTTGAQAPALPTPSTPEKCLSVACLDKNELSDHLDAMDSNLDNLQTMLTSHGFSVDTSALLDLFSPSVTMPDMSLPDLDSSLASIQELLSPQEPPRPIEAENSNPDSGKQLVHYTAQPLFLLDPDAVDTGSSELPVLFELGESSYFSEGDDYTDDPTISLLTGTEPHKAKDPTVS

[8] = target: T2, Replicative DNA helicase DnaB (Mycobacterium tuberculosis, UniProt P9WMR3); experiment: DnaB intein splicing inhibitors, dose response, biochemical, cell-free fluorescence (AID 449749); assay type: functional
T2 sequence (P9WMR3 whole entry): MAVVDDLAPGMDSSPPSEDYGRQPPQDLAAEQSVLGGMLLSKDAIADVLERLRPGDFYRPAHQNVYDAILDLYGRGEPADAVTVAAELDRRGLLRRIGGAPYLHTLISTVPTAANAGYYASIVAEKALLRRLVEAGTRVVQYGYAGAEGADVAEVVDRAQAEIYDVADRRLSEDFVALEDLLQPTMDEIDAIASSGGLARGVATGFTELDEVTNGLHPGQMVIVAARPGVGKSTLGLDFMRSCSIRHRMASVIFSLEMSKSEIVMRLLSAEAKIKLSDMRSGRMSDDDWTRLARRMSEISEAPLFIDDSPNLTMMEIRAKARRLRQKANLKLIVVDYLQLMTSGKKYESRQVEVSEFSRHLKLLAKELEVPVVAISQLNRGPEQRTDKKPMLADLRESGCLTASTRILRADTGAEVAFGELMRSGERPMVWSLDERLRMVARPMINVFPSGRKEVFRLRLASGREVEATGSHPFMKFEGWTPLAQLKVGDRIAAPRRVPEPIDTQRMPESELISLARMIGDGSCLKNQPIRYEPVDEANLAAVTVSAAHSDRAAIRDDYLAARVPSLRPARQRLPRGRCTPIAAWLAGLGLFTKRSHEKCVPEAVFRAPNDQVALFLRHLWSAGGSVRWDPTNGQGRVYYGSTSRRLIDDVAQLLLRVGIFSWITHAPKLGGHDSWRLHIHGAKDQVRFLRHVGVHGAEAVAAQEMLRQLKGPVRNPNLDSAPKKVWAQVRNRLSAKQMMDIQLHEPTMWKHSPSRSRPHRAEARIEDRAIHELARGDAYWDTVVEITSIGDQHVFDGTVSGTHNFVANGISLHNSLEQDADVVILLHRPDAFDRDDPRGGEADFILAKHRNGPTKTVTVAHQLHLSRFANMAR

Protein RecA = target: T3, Protein RecA (Mycobacterium tuberculosis, UniProt P9WHJ3); experiment: Fluorescence Cell-Free Homogeneous Dose Retest to Identify Inhibitors of RecA-Intein Splicing Activity. [Related pubchem assays (depositor defined):AID2097, AID2223, AID489010, AID492950]; assay type: functional
T3 sequence (P9WHJ3 whole entry): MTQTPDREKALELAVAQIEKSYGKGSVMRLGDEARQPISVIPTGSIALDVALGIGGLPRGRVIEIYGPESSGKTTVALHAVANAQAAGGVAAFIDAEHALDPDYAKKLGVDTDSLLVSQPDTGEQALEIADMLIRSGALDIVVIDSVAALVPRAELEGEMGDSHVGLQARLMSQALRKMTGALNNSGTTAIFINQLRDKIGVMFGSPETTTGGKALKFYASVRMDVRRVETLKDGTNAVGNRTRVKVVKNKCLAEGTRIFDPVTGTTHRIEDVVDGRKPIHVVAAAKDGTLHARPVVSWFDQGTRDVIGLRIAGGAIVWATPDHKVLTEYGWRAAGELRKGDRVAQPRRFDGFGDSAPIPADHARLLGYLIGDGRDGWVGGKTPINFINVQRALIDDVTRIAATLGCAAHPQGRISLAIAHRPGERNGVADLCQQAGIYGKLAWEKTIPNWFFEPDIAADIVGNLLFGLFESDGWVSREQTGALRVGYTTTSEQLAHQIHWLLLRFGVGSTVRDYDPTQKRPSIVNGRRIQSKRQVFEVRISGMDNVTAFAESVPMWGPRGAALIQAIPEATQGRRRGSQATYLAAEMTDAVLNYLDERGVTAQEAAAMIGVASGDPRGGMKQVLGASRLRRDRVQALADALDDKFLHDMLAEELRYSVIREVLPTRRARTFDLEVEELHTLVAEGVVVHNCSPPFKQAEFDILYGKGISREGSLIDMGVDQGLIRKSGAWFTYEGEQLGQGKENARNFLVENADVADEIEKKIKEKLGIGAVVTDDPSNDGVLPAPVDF

[9] = target: Sphingosine 1-phosphate receptor 1 (Homo sapiens, UniProt P21453); assay type: functional;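 note: Tango beta-arrestin reporter U2OS cells stimulated with S1P near its EC80; inhibitor potency meaning antagonism of receptor activation by the natural agonist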
Melanocortin receptor 4 = Melanocortin receptor 4 (Homo sapiens, UniProt P32245); experiment: inhibitors of MC4R cAMP signaling – cell-based, TR-FRET, biased antagonists, dose response (AID 602298); assay type: functional;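 note: antagonist potency against agonist-stimulated cAMP production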
Fatty acid synthase [10] = target: T4, Fatty acid synthase (Homo sapiens, UniProt P49327); experiment: inhibition of human FAS-TE enzyme activity – biochemical, kinetic fluorescence intensity, dose response (AID 624326); assay type: functional;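 note: rate of fluorescence rise from hydrolysis of a fluorogenic O-methyl fluorescein ester substrate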
[11] = target: T5, Sphingosine 1-phosphate receptor 4 (Homo sapiens, UniProt O95977); experiment: Late stage fluorescence dose response cell-based screening assay for antagonists of the Sphingosine 1-Phosphate Receptor 4 (S1P4). [Related pubchem assays: 1524 (Confirmation screen (S1P4 antagonists).), 1510 (Primary screen (S1P4 antagonists).), 1853 (Summary AID (S1P4 antagonists).), 1692 (Dose response screen (S1P4 antagonists).)]; assay type: functional
T5 sequence (O95977 whole entry): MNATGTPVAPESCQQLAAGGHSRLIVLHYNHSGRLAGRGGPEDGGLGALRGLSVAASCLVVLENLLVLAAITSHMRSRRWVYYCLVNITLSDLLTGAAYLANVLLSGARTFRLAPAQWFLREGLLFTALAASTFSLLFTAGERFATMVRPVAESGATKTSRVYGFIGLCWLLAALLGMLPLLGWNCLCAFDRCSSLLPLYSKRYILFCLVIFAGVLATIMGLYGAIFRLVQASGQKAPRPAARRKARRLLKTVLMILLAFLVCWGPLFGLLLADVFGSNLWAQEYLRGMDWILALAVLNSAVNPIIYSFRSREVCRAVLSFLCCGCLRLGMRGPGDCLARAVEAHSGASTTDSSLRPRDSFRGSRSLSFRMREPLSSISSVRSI

[12] = target: T5, Sphingosine 1-phosphate receptor 4; experiment: Fluorescence dose response cell-based high throughput screening assay for antagonists of the Sphingosine 1-Phosphate Receptor 4 (S1P4). [Related pubchem assays: 1524 (Confirmation in triplicates.), 1510 (Primary screen.)]; assay type: functional
[13] = HPDE-C7 pancreatic duct cell viability loss – fluorescence, HTS (AID 430); assay type: functional, cell-based; settings: Homo sapiens
Fatty acid synthase [14] = target: T4, Fatty acid synthase; experiment: inhibition of human FAS-TE enzyme activity – biochemical, endpoint fluorescence intensity, uHTS hits, dose response (AID 624327); assay type: functional;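 note: fluorescence from hydrolysis of an O-methyl fluorescein acyl ester substrate by the enzyme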

T4 sequence (P49327 whole entry): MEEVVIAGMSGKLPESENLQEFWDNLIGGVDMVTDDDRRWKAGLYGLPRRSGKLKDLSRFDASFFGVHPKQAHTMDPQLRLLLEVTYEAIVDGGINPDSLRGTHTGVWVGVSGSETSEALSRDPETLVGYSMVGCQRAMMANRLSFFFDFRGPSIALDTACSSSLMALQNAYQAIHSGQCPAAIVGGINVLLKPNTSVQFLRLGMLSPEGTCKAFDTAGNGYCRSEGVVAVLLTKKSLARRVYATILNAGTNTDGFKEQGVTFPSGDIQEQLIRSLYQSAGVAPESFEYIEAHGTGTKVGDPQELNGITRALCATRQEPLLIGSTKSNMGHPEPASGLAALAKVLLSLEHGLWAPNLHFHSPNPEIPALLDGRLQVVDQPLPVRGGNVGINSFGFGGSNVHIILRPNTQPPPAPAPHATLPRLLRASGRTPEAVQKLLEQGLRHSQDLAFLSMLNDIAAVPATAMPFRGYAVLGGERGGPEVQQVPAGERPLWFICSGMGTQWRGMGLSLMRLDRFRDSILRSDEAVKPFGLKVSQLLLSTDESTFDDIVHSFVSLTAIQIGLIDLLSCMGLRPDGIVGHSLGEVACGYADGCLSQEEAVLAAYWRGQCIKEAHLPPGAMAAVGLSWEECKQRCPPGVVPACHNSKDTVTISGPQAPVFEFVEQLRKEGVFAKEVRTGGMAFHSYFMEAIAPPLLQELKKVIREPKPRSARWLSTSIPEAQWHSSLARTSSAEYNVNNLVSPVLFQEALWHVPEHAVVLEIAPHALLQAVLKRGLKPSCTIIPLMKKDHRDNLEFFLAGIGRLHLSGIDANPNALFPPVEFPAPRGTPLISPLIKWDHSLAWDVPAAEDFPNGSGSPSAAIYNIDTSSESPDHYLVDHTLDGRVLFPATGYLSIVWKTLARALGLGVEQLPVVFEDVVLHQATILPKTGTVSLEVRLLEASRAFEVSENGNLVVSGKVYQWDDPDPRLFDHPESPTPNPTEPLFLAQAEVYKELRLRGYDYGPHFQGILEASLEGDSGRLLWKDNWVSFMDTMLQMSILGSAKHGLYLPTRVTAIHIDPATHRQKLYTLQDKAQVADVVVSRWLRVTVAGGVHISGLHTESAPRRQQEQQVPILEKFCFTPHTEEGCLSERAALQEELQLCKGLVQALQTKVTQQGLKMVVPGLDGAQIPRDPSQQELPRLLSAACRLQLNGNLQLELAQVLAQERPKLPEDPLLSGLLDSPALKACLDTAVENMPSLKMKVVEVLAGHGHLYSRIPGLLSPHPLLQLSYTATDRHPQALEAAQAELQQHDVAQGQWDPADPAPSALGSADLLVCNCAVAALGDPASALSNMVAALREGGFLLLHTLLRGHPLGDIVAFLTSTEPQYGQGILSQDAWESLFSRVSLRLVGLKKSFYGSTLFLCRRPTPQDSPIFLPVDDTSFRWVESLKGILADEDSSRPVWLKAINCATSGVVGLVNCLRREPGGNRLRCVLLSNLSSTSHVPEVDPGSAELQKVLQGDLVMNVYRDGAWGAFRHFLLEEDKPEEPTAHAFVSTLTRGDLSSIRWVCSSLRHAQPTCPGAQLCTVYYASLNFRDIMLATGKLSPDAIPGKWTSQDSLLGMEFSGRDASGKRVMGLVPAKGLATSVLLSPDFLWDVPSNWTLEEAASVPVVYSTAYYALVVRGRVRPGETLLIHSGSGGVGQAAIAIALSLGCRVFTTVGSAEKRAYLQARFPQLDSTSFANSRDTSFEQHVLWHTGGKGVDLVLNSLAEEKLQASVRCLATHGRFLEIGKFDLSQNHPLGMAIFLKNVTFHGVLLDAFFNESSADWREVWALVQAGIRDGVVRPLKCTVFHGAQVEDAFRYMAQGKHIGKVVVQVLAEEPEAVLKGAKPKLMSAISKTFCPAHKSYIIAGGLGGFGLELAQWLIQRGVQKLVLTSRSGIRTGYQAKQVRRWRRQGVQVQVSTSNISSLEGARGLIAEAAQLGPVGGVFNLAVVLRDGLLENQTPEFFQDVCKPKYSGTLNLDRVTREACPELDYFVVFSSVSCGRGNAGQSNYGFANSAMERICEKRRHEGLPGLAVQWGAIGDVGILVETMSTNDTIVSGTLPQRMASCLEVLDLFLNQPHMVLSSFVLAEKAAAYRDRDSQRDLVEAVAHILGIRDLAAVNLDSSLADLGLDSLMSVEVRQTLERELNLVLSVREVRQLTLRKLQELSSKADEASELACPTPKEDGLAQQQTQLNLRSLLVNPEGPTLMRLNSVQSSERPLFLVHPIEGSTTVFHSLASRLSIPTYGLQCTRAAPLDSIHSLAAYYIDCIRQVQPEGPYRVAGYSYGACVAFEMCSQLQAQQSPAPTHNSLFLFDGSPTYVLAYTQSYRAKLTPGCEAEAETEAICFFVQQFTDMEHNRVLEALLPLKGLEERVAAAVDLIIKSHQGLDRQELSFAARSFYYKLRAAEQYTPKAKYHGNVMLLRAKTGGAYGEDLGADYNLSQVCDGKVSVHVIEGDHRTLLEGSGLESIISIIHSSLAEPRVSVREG
Sphingosine 1-phosphate receptor 1, sequence (P21453 whole entry): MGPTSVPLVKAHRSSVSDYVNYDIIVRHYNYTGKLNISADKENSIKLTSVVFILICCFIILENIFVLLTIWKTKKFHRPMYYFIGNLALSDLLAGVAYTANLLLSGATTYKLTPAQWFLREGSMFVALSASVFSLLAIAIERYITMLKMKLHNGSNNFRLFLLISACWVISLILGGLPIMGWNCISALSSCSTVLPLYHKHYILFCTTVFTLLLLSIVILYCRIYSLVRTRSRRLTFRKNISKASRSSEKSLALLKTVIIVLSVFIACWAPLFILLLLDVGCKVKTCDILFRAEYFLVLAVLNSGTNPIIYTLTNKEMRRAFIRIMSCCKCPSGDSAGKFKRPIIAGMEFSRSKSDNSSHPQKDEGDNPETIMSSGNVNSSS
Melanocortin receptor 4, sequence (P32245 whole entry): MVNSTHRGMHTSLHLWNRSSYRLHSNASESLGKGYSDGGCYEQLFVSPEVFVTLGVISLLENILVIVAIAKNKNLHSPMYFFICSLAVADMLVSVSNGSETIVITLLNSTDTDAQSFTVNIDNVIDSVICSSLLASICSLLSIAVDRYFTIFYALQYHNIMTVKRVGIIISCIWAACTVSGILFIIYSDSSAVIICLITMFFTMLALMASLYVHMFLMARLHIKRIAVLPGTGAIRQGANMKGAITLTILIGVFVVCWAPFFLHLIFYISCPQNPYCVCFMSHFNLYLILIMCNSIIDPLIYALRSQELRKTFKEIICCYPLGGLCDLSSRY
Melanin-concentrating hormone receptor 1, sequence (Q99705 whole entry): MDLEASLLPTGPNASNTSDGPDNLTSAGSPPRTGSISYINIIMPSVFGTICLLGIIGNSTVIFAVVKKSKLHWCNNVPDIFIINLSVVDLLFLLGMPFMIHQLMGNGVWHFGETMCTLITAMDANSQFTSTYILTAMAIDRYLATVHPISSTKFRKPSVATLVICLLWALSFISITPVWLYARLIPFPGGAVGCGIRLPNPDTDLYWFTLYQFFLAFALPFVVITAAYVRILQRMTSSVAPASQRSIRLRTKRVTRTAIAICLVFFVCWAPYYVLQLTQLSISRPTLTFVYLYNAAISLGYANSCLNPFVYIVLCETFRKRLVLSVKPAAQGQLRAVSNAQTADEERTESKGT
Neuropeptides B/W receptor type 1, sequence (P48145 whole entry): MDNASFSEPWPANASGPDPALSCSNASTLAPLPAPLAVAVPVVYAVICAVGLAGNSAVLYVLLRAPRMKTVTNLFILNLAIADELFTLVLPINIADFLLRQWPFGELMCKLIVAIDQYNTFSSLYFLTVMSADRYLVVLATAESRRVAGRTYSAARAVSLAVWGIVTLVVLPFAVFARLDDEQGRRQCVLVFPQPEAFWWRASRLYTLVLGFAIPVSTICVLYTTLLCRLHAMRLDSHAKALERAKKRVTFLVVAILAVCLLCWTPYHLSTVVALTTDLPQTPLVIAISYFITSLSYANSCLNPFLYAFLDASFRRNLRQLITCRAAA

SMILES	IC50 [1]	IC50 [2]	IC50 [3]	EC50 [4]	AC50 [5]	IC50 [6]	EC50 [7]	AC50 [8]	EC50 (Protein RecA)	IC50 [9]	IC50 (Melanocortin receptor 4)	IC50 (Fatty acid synthase [10])	IC50 [11]	IC50 [12]	EC50 [13]	IC50 (Fatty acid synthase [14])
COc1ccc(Oc2c(Cl)cnn(CC(=O)C(C)(C)C)c2=O)cc1	> 20 µM (inactive)	> 20 µM (inactive)														
Cc1ccccc1CS(=O)(=O)c1nnc([C@H](CC(C)C)NC(=O)OC(C)(C)C)o1			0.632 µM (active)	11.9 µM (active)	16 µM (active)	> 64.6 µM (inactive)	> 260 µM (inactive)	93.7 µM (active)	11.6 µM (active)	38.9 µM (not active)	> 64.6 µM (inactive)	7.36 µM (active)	2.89 µM (not active)	1.2 µM (active)	8.56 µM (active)	12.3 µM (active)
